Assay results: ChEMBL document CHEMBL1201862, “PubChem BioAssay data set” (2004)
Activity calls are given as the source filed them.

How the values were obtained:
[1] = LMP1-driven NF-kB reporter inhibition, dose response, cell-based, luciferase reporter, luminescence, dry powder, set 2 (AID 624376); format: functional
[2] = miR-122 activators in hepatoma reporter cells, dose response, cell-based, Huh7 psiCHECK-miR122, Renilla luciferase, cherry-picked (AID 651956); format: functional;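 also: huh7 hepatoma cells stably carrying a psiCHECK-2 miR-122 sensor plasmid; renilla luciferase signal reporting endogenous miR-122 activity after 48 h compound exposure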
[3] = lymphoblastoid cell cytotoxicity, dose response, cytotoxicity control, plate reader, dry powder, set 2 (AID 624367); format: functional
[4] = HEK293T cytotoxicity, dose response, cytotoxicity control for miR-122 modulator project, cell-based, inhibitor set, cherry-pick, set 2 (AID 720697); format: functional
[5] = target: Disintegrin and metalloproteinase domain-containing protein 17 (Homo sapiens, UniProt P78536); test: exosite inhibitors of ADAM17, dose response, biochemical (AID 743260)
[6] = ADAM10 protease inhibitors, dose response, selectivity assay for ADAM17 exosite inhibitor project, biochemical, FRET peptide substrate, recombinant human ADAM10 (AID 743259);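 also: ADAM10 enzyme cleaving a FRET peptide substrate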
[7] = Shn3 3'UTR reporter inhibitors, dose response, cell-based, Clone20 osteoblasts, firefly luciferase, cherry-picked (AID 624132); format: functional;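 also: firefly luciferase luminescence from reporter carrying the Shn3 3'UTR in osteoblasts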
[8] = HepG2 cell cytotoxicity, dose response, cytotoxicity control for Shn3 inhibitor project, CellTiter-Glo, cherry-picked (AID 624134); format: functional, cell-based
[9] = control 3'UTR Renilla luciferase suppression, dose response, counter-screen for Shn3 inhibitor project, cell-based, Clone20-Shn3RL, cherry-picked (AID 624133); format: functional
Protein Wnt-3a = Protein Wnt-3a (Mus musculus, UniProt P27467); test: Wnt3a-driven reporter signaling inhibition, dose response, selectivity assay for Gli-SUFU antagonist project, Wnt-LIGHT cells, luminescence (AID 651570); format: functional; conditions: read-out: IC50_Mean;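 also: Wnt-LIGHT reporter cells stimulated with conditioned medium from Wnt3a-producing cells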
[10] = reduction of Shn3 3'UTR firefly luciferase signal, dose response, Schnurri-3 inhibitor project, cell-based, Clone20 osteoblasts, cherry-pick, set 2 (AID 720490); format: functional;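 also: actives lower the luminescence signal as inhibitors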
cells = format: functional, cell-based
[11] = target: T1, Nuclear receptor subfamily 0 group B member 1 (Homo sapiens, UniProt P51843); format: functional, cell-based;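 also: HEK293T cells transfected with SF-1 and DAX-1 plus StAR promoter luciferase reporter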
T1 sequence (P51843 whole entry): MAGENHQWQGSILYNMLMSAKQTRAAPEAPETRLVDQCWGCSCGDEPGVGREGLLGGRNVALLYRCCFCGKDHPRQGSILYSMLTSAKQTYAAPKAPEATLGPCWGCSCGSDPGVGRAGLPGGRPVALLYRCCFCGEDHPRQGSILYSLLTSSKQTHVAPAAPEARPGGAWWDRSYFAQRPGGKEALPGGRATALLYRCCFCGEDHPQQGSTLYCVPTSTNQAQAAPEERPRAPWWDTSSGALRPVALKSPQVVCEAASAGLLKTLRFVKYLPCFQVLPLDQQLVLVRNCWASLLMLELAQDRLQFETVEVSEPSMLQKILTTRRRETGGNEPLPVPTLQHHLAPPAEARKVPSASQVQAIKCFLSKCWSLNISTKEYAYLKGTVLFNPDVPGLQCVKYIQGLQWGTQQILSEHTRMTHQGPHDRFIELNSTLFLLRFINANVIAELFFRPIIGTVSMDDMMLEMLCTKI

[12] = LGR2 antagonists, dose response, cell-based, HEK293, CRE-luciferase reporter, cherry pick, set 2 (AID 743343); format: functional;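 also: transfected cells were stimulated with diluted bursicon conditioned medium after compound addition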
[13] = MC4R antagonists, dose response, counter-screen for LGR2 antagonist project, cell-based, plate reader, cherry pick (AID 743444); format: functional;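 also: transfected HEK 293 cells stimulated with alpha-MSH peptide; potency of inhibitors of the alpha-MSH evoked signal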
[14] = HEK293 cell cytotoxicity, dose response, cytotoxicity control, plate reader, cherry-picked samples (AID 743446); format: functional, cell-based
[15] = growth suppression of PTEN-null colon cells, dose response, cell-based, HCT116 PTEN knockout (AID 1047); format: functional;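 also: HCT116 colon tumor cells with PTEN knocked out; cells exposed to compound for 60 hours before readout; potency for loss of cell viability measured by luminescence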
[16] = growth suppression of beta-catenin-knockout colon cells, dose response, cell-based, HCT116, human colon tumor (AID 1045); format: functional;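 also: HCT116 colon tumor cells with beta catenin knocked out; cells exposed to compound for 60 hours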
[17] = target: T2, Microphthalmia-associated transcription factor (Homo sapiens, UniProt O75030); test: TRPM1 promoter luciferase signal decrease, dose response, MITF inhibitor project, cell-based, SK-MEL-5, cherry-picked, set 3 (AID 493073); format: functional
T2 sequence (O75030 whole entry): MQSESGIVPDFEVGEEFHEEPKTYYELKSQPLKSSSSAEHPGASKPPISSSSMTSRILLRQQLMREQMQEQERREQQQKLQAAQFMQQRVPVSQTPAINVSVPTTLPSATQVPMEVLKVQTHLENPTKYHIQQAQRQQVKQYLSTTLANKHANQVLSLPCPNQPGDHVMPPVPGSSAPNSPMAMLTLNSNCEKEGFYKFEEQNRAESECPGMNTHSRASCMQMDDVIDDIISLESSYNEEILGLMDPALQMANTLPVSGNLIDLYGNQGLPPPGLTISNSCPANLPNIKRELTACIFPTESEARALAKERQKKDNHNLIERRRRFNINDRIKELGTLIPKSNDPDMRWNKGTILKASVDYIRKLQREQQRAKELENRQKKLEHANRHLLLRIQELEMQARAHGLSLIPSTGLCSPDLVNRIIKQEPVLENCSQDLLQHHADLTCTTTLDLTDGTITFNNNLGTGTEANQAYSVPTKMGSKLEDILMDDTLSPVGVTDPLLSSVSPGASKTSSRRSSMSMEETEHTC

A-375 [18] = test: MITF: Counter assay: A375 proliferation Measured in Cell-Based System Using Plate Reader - 2084-03_Inhibitor_Dose_DryPowder_Activity. [Related pubchem assays (depositor defined):AID488944]; format: functional; conditions: Homo sapiens
A-375 [19] = test: A375 melanoma cell viability reduction, dose response, counter-screen for MITF modulator project, cherry-pick samples, set 2 (AID 540335); format: functional, cell-based; conditions: Homo sapiens
[20] = HepG2 cell cytotoxicity, dose response, cytotoxicity control, cherry-picks, set 5 (AID 1053118); format: functional, cell-based
[21] = inhibitors of fibronectin matrix deposition, dose response, AH1F cells, Alexa488-FN fluorescence, cherry-picks (AID 1035475); format: functional, cell-based
[22] = target: Kappa-type opioid receptor (Homo sapiens, UniProt P41145); test: Late-stage fluorescence-based cell-based dose response assay for antagonists of kappa opioid receptor 1 (OPRK1).; format: functional
Mu-type opioid receptor = Mu-type opioid receptor (Homo sapiens, UniProt P35372); test: Late-stage results from the probe development effort to identify antagonists of OPRK1: luminescence-based cell-based dose response OPRM1 counterscreen, Set 2.; format: functional
[23] = target: Delta-type opioid receptor (Homo sapiens, UniProt P41143); test: Late-stage results from the probe development effort to identify antagonists of OPRK1: fluorescence-based cell-based dose response OPRD1 counterscreen, Set 2.; format: functional
[24] = target: Sphingosine 1-phosphate receptor 1 (Homo sapiens, UniProt P21453); test: Late-stage counterscreen for antagonists of kappa opioid receptor 1 (OPRK1): fluorescence-based cell-based dose response assay to identify antagonists of Sphingosine 1-Phosphate Receptor 1 (S1P1).; format: functional
Chain of Sphingosine 1-phosphate receptor 1 (P21453 whole entry): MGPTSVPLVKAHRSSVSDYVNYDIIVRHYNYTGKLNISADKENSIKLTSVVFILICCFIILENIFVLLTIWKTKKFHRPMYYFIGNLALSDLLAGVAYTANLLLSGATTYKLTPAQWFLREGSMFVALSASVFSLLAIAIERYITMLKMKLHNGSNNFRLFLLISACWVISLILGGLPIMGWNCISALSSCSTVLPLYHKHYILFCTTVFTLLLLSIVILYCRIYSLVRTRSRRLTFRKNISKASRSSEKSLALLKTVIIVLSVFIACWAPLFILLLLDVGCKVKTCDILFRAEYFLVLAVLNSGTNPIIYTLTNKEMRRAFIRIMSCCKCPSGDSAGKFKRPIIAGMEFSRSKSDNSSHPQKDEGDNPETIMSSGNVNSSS

Chain of Kappa-type opioid receptor (P41145 whole entry): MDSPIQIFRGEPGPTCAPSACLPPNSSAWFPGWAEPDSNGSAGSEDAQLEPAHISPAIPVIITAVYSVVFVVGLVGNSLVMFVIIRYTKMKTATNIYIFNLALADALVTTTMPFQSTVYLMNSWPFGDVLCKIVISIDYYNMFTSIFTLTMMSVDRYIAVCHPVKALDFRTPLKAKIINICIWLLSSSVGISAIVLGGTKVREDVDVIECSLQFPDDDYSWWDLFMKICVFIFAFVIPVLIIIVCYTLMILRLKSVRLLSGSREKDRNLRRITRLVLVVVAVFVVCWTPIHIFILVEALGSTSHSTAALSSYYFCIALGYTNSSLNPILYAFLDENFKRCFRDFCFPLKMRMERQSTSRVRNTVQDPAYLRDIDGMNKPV
Chain of Delta-type opioid receptor (P41143 whole entry): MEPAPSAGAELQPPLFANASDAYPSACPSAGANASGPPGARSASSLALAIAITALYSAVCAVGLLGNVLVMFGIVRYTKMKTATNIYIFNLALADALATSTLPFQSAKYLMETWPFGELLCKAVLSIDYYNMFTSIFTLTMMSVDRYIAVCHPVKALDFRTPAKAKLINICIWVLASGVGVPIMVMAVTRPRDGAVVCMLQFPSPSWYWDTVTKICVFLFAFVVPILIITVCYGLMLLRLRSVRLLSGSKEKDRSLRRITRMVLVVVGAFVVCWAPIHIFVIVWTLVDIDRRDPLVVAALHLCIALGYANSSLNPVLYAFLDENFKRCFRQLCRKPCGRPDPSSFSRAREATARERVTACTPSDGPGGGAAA
Chain of Disintegrin and metalloproteinase domain-containing protein 17 (P78536 whole entry, the tested form may be a part): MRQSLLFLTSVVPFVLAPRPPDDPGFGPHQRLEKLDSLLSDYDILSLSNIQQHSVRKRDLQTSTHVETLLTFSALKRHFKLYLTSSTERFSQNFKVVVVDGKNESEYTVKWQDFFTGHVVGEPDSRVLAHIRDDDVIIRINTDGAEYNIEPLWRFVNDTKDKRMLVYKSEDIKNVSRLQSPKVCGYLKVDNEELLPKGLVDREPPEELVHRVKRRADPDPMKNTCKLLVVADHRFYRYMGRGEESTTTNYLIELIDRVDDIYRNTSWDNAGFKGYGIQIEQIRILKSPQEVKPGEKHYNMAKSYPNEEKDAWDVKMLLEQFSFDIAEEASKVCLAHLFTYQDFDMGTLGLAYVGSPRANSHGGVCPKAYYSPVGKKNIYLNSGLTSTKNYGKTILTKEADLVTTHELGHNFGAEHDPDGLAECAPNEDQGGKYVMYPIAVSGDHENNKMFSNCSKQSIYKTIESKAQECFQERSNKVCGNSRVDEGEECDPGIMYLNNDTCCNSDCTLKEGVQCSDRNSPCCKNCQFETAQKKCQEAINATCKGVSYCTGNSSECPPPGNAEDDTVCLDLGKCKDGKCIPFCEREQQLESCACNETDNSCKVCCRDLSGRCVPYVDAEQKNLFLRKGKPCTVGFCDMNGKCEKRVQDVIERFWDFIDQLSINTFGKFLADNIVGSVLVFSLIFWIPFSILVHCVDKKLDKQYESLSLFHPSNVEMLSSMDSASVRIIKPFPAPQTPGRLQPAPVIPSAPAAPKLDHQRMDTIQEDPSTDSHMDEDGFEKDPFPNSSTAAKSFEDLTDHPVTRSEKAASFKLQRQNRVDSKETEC
Chain of Protein Wnt-3a (P27467 whole entry): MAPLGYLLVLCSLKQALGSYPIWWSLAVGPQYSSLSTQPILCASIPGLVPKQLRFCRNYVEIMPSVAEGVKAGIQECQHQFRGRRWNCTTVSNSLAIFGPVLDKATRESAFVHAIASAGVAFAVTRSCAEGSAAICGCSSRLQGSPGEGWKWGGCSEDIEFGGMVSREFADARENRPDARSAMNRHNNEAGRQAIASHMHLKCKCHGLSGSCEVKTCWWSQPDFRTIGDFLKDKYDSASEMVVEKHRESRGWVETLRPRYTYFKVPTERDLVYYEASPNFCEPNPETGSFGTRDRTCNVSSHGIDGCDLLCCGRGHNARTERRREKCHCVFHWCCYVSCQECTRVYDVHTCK
Chain of Mu-type opioid receptor (P35372 whole entry): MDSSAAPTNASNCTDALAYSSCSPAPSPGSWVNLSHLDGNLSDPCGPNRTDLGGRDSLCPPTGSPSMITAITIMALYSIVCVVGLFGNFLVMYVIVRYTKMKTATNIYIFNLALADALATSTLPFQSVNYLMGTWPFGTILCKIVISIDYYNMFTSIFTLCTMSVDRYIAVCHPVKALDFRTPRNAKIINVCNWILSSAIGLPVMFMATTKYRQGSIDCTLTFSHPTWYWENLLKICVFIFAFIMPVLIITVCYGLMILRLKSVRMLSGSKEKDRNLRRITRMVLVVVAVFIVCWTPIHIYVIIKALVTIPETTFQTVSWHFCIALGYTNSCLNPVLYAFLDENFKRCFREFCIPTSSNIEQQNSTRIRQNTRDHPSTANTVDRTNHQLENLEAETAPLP

Q: For `Cc1noc(C)c1S(=O)(=O)Nc1ccc2c(c1)C(=O)N([C@@H](C)CO)C[C@H](C)[C@@H](CN(C)Cc1ccc(C(F)(F)F)cc1)OCCCC[C@@H](C)O2`, which AbsAC35 [1] is on record?
A: Its AbsAC35 is 101.91 µM.

Q: Which AC50 [2] does the source give for `C[C@H](CO)N1C[C@H](C)[C@H](CN(C)C(=O)NC2CCCCC2)Oc2cc(/C=C/c3ccccc3)ccc2S1(=O)=O` here?
A: Its AC50 is 19.1 µM (active).

Q: And the AbsAC35 [3]?
A: Its AbsAC35 is 53.47 µM.

Q: And the AC50 [4]?
A: Its AC50 is 15.9 µM (active).

Q: For `COC(=O)C1=C(c2cccc(OCc3ccccc3)c2)C[C@@H]2CC[C@H]1N2C(=O)NCCOc1ccc(OC)cc1`, which IC50 [5] is on record?
A: The IC50 was > 69.5 µM (inactive).

Q: What about the IC50 [6] of the same molecule?
A: The IC50 was 12.1 µM (inactive).

Q: Which results are given for `CC(C)Cn1c(N)c(C(=O)COC(=O)C2Cc3ccccc3CN2S(C)(=O)=O)c(=O)n(C)c1=O` (stereo not given)?
A: AC50 [7]: 0.72 µM (active); AC50 [8]: > 70 µM (inactive); AC50 [9]: 4.76 µM (active); IC50 (Protein Wnt-3a): 6.31 µM (active); AC50 [10]: 0.897 µM (active)

Q: For `Cc1ccnc(NC(=O)c2cccc(S(=O)(=O)N3CCN(c4ccccc4)CC3)c2)c1`, which IC50 (cells) is on record?
A: The IC50 was > 67.5 µM (inactive).

Q: What about the IC50 [11] of the same molecule?
A: The IC50 was > 67.5 µM (inactive).

Q: What about the AC50 [12] of the same molecule?
A: Its AC50 is 12.4 µM (active).

Q: And the AC50 [13]?
A: Its AC50 is 14.6 µM (active).

Q: What about the AC50 [14] of the same molecule?
A: The AC50 was > 52 µM (inactive).

Q: What does the source list for `Cn1cc([N+](=O)[O-])c(C(=O)Nc2cc(Oc3ccccc3)cc([N+](=O)[O-])c2)n1`?
A: EC50 [15]: 0.389 µM (active); EC50 [16]: 0.309 µM (active); AC50 [17]: 12.4 µM (active); AC50 (A-375 [18]): > 35 µM (active); AC50 (A-375 [19]): > 35 µM (active); AC50 [7]: 5.41 µM (active); AC50 [8]: 19.8 µM (active); AC50 [9]: 2.82 µM (active); AC50 [20]: 21.9 µM (active); AC50 [21]: 12.3 µM (active)

Q: Which IC50 [22] does the source give for `CCOC(=O)c1ccc(N2CC3CCCCN3C2c2cccc(OC)c2O)cc1` (stereo not given) here?
A: Its IC50 is 6.85 µM (active).

Q: What about the IC50 (Mu-type opioid receptor) of the same molecule?
A: Its IC50 is > 50 µM (inactive).

Q: What about the IC50 [23] of the same molecule?
A: Its IC50 is > 50 µM (inactive).

Q: And the IC50 [24]?
A: The IC50 was > 50 µM (inactive).
